Residue numbers refer to the chain shown, from its start. pIC50: −log10 of the molar value.
Assays:
HLA-DR DRB3*01:01 = HLA-DR DRB3*01:01 (Homo sapiens, UniProt P01903+P79483); test: biochemical; type: binding
HLA-DR DRB5*01:01 = HLA-DR DRB5*01:01 (Homo sapiens, UniProt P01903+Q30154); test: biochemical; type: binding
[1] = target: T1, HLA-DP DPA1*02:01/DPB1*14:01 (Homo sapiens, UniProt P04440+P20036, A65V/A84D/A85E/E86D/F191V/F38H/G113D/G114E/G40L/I94L/K142R/L158P/L37V/M105V/M116V/M62Q/P115A/Q81R/R125K/T114A/T199I/T259P); test: biochemical; type: binding; details: read-out: Binding capacity/IC50 (nM) DPA1*02:01 DPB1*14:01
T1 sequence (P20036 29-260 A42M/M62Q/Q81R/T114A/K142R/L158P/F191V/T259P): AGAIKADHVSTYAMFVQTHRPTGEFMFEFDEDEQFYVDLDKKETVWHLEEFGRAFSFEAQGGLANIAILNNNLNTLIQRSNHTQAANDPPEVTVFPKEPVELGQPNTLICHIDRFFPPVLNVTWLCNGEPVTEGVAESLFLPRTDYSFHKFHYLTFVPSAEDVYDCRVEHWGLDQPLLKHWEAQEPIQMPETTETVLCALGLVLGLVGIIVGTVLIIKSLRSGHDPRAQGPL
T1 sequence (P04440 30-258 L37V/F38H/G40L/A65V/A84D/A85E/E86D/I94L/M105V/G113D/G114E/P115A/M116V/R125K/T199I/R223Q): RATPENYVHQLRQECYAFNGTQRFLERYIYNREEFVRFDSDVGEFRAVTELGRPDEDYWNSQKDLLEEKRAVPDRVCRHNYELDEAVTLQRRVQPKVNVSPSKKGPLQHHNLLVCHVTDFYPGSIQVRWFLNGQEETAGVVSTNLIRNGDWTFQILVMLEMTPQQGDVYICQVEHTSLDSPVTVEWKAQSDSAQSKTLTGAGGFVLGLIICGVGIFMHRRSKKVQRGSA

[2] = target: HLA-DP DPA1*02:01/DPB1*01:01 (Homo sapiens, UniProt P04440+P20036, F191V/F38Y/F64Y/G113D/G114E/K142R/L158P/L37V/M105V/M116V/M62Q/P115A/Q81R/R125K/R223Q/T114A/T199I/T259P); test: biochemical
[3] = target: T2, HLA-DP DPA1*01:03/DPB1*20:01 (Homo sapiens, UniProt P04440+P20036, A65V/A84D/A85E/E86D/F38Y/G113D/G114E/G40L/I94L/L37V/M116V/P115A/R125K/T199I); test: biochemical; type: binding; details: read-out: Binding capacity/IC50 (nM) DPA1*01:03 DPB1*20:01
T2 sequence (P20036 29-260): T1 sequence (P20036 29-260 A42M/M62Q/Q81R/T114A/K142R/L158P/F191V/T259P) with M14A, Q34M, R53Q, A86T, R114K, P130L, V163F, P231T
T2 sequence (P04440 30-258 L37V/F38Y/G40L/A65V/A84D/A85E/E86D/I94L/G113D/G114E/P115A/M116V/R125K/T199I/V234M): T1 sequence (P04440 30-258 L37V/F38H/G40L/A65V/A84D/A85E/E86D/I94L/M105V/G113D/G114E/P115A/M116V/R125K/T199I/R223Q) with H9Y, V76M, Q194R, V205M

[4] = target: T3, HLA-DP DPA1*01:03/DPB1*03:01 (Homo sapiens, UniProt P04440+P20036, A65V/A84D/A85E/E86D/F38Y/G113D/G114E/G40L/I94L/L37V/M105V/M116V/P115A/R125K/T199I); test: biochemical; type: binding; details: read-out: Binding capacity/IC50 (nM) DPA1*01:03 DPB1*03:01
T3 sequence (P20036 29-260): T1 sequence (P20036 29-260 A42M/M62Q/Q81R/T114A/K142R/L158P/F191V/T259P) with M14A, Q34M, R53Q, A86T, R114K, P130L, V163F, P231T
T3 sequence (P04440 30-258 L37V/F38Y/G40L/A65V/A84D/A85E/E86D/I94L/M105V/G113D/G114E/P115A/M116V/R125K/T199I): T1 sequence (P04440 30-258 L37V/F38H/G40L/A65V/A84D/A85E/E86D/I94L/M105V/G113D/G114E/P115A/M116V/R125K/T199I/R223Q) with H9Y, Q194R

[5] = target: T4, HLA-DP DPA1*01:03/DPB1*02:01 (Homo sapiens, UniProt P04440+P20036, A65V/A84D/A85E/K98E); test: biochemical; type: binding
T4 sequence (P20036 29-260): T1 sequence (P20036 29-260 A42M/M62Q/Q81R/T114A/K142R/L158P/F191V/T259P) with M14A, Q34M, R53Q, A86T, R114K, P130L, V163F, P231T
T4 sequence (P04440 30-258 A65V/A84D/A85E/K98E): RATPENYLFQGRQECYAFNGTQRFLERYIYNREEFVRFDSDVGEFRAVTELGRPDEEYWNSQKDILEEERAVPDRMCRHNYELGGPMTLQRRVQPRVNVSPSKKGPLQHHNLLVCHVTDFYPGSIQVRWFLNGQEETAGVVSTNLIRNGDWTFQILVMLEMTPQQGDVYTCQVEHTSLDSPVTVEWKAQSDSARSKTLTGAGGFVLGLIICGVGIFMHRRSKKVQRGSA

[6] = target: T5, HLA-DP DPA1*02:01/DPB1*05:01 (Homo sapiens, UniProt P04440+P20036, A65V/A84E/F191V/F64L/G113D/G114E/K142R/L158P/M116V/M62Q/P115A/Q81R/R125K/T114A/T199I/T259P/V234M); test: biochemical; type: binding; details: read-out: Binding capacity/IC50 (nM) DPA1*02:01 DPB1*05:01
T5 sequence (P20036 29-260 A42M/M62Q/Q81R/T114A/K142R/L158P/F191V/T259P): T1 sequence (P20036 29-260 A42M/M62Q/Q81R/T114A/K142R/L158P/F191V/T259P)
T5 sequence (P04440 30-258 F64L/A65V/A84E/G113D/G114E/P115A/M116V/R125K/T199I/V234M): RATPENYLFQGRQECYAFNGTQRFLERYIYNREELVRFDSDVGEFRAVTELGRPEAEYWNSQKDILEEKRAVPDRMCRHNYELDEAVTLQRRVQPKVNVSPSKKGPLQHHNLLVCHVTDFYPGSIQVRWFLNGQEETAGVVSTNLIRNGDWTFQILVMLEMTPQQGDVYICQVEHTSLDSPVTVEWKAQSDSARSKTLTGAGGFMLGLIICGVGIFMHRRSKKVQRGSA

[7] = target: T6, HLA-DP DPA1*01:03/DPB1*04:01 (Homo sapiens, UniProt P04440+P20036); test: biochemical; type: binding
T6 sequence (P20036 29-260): T1 sequence (P20036 29-260 A42M/M62Q/Q81R/T114A/K142R/L158P/F191V/T259P) with M14A, Q34M, R53Q, A86T, R114K, P130L, V163F, P231T
T6 sequence (P04440 30-258): T4 sequence (P04440 30-258 A65V/A84D/A85E/K98E) with V36A, D55A, E56A, E69K

[8] = target: HLA-DP DPA1*03:01/DPB1*04:02 (Homo sapiens, UniProt P04440+P20036, A42M/A65V/A84D/A85E/L207M/L97S); test: biochemical
[9] = system: splenocytes from HIVBr27 immunized mice; test: murine IFN-γ ELISPOT assay; type: in vivo; details: splenocytes of HIVBr27-immunized BALB/c mice, 5 µM peptide
Procedure: Six to eight week-old female BALB/c mice were used in this study. Six mice per group were injected intramuscularly, at weeks 0, 2 and 4, with HIVBr27 plasmid or empty pVAX1. Each quadriceps was injected with 50 µL of DNA at a concentration of 1 µg/µL in saline such that each animal received a total of 100 µg of plasmid DNA per immunization. Two weeks after the last DNA immunization, mice were euthanized with CO2.
Two weeks after the last immunization, mice were euthanized and spleens were removed aseptically. After obtaining single cell suspensions, cells were washed in 10 mL of RPMI 1640. Cells were then resuspended in R-10 (RPMI supplemented with 10% of fetal bovine serum (GIBCO), 2 mM L-glutamine (Life Technologies), 1 mM sodium pyruvate (Life Technologies), 1% vol/vol non-essential amino acids solution (Life Technologies), 1% vol/vol vitamin solution (Life Technologies), […] of Gentamicin, […] of Peflacin and 5×10^−5 M 2β-mercaptoetanol (Life Technologies). The viability of cells was evaluated using 0.2% Trypan Blue exclusion dye to discriminate between live and dead cells. Cell concentration was estimated with the aid of a Neubauer chamber and adjusted in cell culture medium. […]

CSCC[C@H](NC(=O)[C@@H]1CCCN1C(=O)[C@H](CCCNC(=N)N)NC(=O)[C@H](CC(C)C)NC(=O)[C@@H]1CCCN1C(=O)[C@@H](NC(=O)[C@H](CCC(N)=O)NC(=O)[C@@H]1CCCN1C(=O)[C@H](CCCNC(=N)N)NC(=O)[C@@H](NC(=O)[C@@H]1CCCN1C(=O)[C@H](Cc1ccccc1)NC(=O)CN)C(C)C)C(C)C)C(=O)N[C@H](C(=O)N[C@@H](Cc1ccc(O)cc1)C(=O)N[C@@H](CCCCN)C(=O)NCC(=O)N[C@@H](C)C(=O)N[C@@H](Cc1ccccc1)C(=O)N[C@@H](CC(=O)O)C(=O)N[C@@H](CC(C)C)C(N)=O)[C@@H](C)O [nef(67-87)] was tested, and the pIC50 (HLA-DR DRB3*01:01) was 5.20 and the pIC50 (HLA-DR DRB5*01:01) was 6.72.
CC[C@H](C)[C@H](NC(=O)[C@H](CCSC)NC(=O)[C@@H](NC(=O)[C@H](CCC(N)=O)NC(=O)[C@H](Cc1c[nH]c2ccccc12)NC(=O)[C@H](CCCNC(=N)N)NC(=O)[C@H](CC(N)=O)NC(=O)[C@H](CCC(=O)O)NC(=O)[C@@H](N)CCSC)C(C)C)C(=O)N[C@H](C(=O)N[C@@H](Cc1c[nH]c2ccccc12)C(=O)N[C@@H](CCC(N)=O)C(=O)N[C@H](C(=O)N[C@@H](CC(=O)O)C(=O)N[C@@H](CCCNC(=N)N)C(N)=O)C(C)C)C(C)C [vif(1-15)] was tested, and the IC50 [1] was 7240 nM, the pIC50 [2] was 5.99 and the IC50 [3] was 364 nM. It also gave an IC50 [4] of 5840 nM, a pIC50 [5] of 5.81 and an IC50 [6] of 8170 nM. It also gave a pIC50 [7] of 7.89 and a pIC50 [8] of 5.43.
In the case of EWEFVSTPPLVKLWY [RT(413-427) B subtype], the “IFN-γ secretion against variant compared to M-group consensus peptide” value [9] was “reduced”.
EWEYVNTPPLVKLWY [RT(413-427) D subtype] was tested, and the “IFN-γ secretion against variant compared to M-group consensus peptide” value [9] was “reduced”.

From PMC3445454, “Broad and Cross-Clade CD4^+ T-Cell Responses Elicited by a DNA Vaccine Encoding Highly Conserved and Promiscuous HIV-1 M-Group Consensus Peptides” (PLoS ONE, 2012)
